Source: US10088490B2, “Assay for analytes using multiple receptors” (Siemens Healthcare Diagnostics Inc., priority 2010, dated 2018)

How the values were obtained:
Type in all cases: binding
[1] = test system: Antibody A specific for cortisol (clone 16DC/17.7, IgG1κ); test: LOCI competitive cortisol immunoassay, cross-reactivity screening with Biotinylated Antibody A Reagent; settings: 100% A Biotinylated Antibody; steroid-stripped serum with cortisol (5 ng/dL)
Description: (§1) The antibodies were subjected to analytical size exclusion chromatography prior to any manipulations.
(§2) NHS-PEO4-Biotin was dissolved fresh at 10 mg/mL in Antibody Dialysis Buffer. […] The mixture was rocked at 25° C. for exactly 3 hours. A 200 mM solution of glycine was prepared by dissolving 750 mg glycine in Antibody Dialysis Buffer to a total volume of 50 mL. At the end of the 3-hour biotinylation reaction, 1.52 mL of the 200 mM glycine solution was added to the reaction mixture. The quenched reaction mixture was rocked an additional 60 minutes at 25° C.
(§3) The biotinylated antibody was then purified using preparatory HPLC using Antibody Dialysis Buffer as the mobile phase. […] This reagent was designated as the Biotinylated Antibody Reagent.
(§4) The assay used for screening purposes was conducted on the DIMENSION® VISTA® instrument (system) (Siemens Healthcare Diagnostics Inc., Newark Del.). Initially, 20 μL Biotinylated Antibody Reagent with 15 μL system water was added to the vessel. After 22 seconds, 15 μL sample with 15 μL system water were added to the vessel. After almost 4 minutes, 20 μL Chemibead Reagent with 15 μL system water were added to the vessel. Approximately 7 minutes later, 20 μL Sensibead Reagent with 135 μL system water was added to the vessel. The LOCI® read was taken after approximately 5 minutes. The assay from the first reagent addition to the final read took approximately 16 minutes. The contents of the vessel when the final read is taken were as follows: 2 ng/mL Biotinylated Antibody Reagent, 4 μg/mL Chemibead Reagent, 56 μg/mL Sensibead Reagent, and […] sample. The assay is a competitive format, which means that the greater the concentration of analyte in the sample, the smaller is the signal generation. This is because a detectable complex is formed by the Biotinylated Antibody Reagent, Chemibead Reagent, and Sensibead Reagent in the absence of analyte. The presence of analyte decreases the proportion of Biotinylated Antibody Reagent that is free to form detectable complexes.
(§5) Initial testing used Biotinylated Antibody A Reagent with the other reagents and the methodology described above to analyze the steroid-stripped serum with cortisol. The panel of 34 cross-reactants were individually added to the steroid-stripped serum with a defined concentration of cortisol (5 ng/dL) and assayed. Cross-reactivity data were calculated as follows:
(§6) [formula] The same testing was performed using Biotinylated Antibody L Reagent. The compilation of the percent cross-reactivities for the 34 compounds is referred to as the cross-reactivity profile. The apparent cortisol concentration is the cortisol value obtained when testing a sample containing cortisol and the interfering substance by the above test method that also detects the interfering substance to some degree.

[2] = test system: mixture of Biotinylated Antibody A Reagent and Biotinylated Antibody L Reagent; test: LOCI competitive cortisol immunoassay, cross-reactivity with mixtures of Biotinylated Antibody A and L Reagents; settings: steroid-stripped serum with cortisol
Description: as §4, §5, §6
A further study was performed by mixing Biotinylated Antibody A Reagent with Biotinylated Antibody L Reagent in a 50:50 mixture; 80% Biotinylated Antibody A Reagent: 20% Biotinylated Antibody L Reagent; 75% Biotinylated Antibody A Reagent: 25% Biotinylated Antibody L Reagent; and 70% Biotinylated Antibody A Reagent: 30% Biotinylated Antibody L Reagent. […] These reagents were used to test cross-reactivity in stripped serum with cortisol.

[3] = test system: Antibody L specific for cortisol (clone XM210, IgG2a); test: LOCI competitive cortisol immunoassay, cross-reactivity screening with Biotinylated Antibody L Reagent; settings: 100% L Biotinylated Antibody; steroid-stripped serum with cortisol (5 ng/dL)
Description: as §1, §2, §3, §4, §5, §6

[4] = 70% A 30% L Biotinylated Antibody
[5] = 75% A 25% L Biotinylated Antibody
[6] = 80% A 20% L Biotinylated Antibody

C[C@]12CC[C@H]3[C@@H](CCC4=CC(=O)CC[C@@]43C)[C@@H]1CC[C@@H]2C(=O)CO [11-deoxycorticosterone]
percent cross reactivity [1]: 0.7%
percent cross reactivity [2, 4]: 0.8%
percent cross reactivity [2, 5]: 0.8%
percent cross reactivity [2, 6]: 0.8%
percent cross reactivity [3]: 0.8%

C[C@]12CC[C@@H](O)C[C@H]1CC[C@@H]1[C@@H]2[C@@H](O)C[C@@]2(C)[C@H]1CC[C@]2(O)[C@@H](O)CO [α-cortol]
percent cross reactivity [1]: 0.2%
percent cross reactivity [2, 4]: 0.7%
percent cross reactivity [2, 5]: 0.6%
percent cross reactivity [2, 6]: 0.5%
percent cross reactivity [3]: 1.0%

C[C@H]1C[C@@H]2[C@H]([C@@H](O)C[C@@]3(C)[C@H]2CC[C@]3(O)C(=O)CO)[C@@]2(C)C=CC(=O)C=C12 [6-methyl-prednisolone]
percent cross reactivity [1]: 6.4%
percent cross reactivity [2, 4]: 8.3%
percent cross reactivity [2, 5]: 7.5%
percent cross reactivity [2, 6]: 7.2%
percent cross reactivity [3]: 10.7%

CC(=O)[C@@]1(O)CC[C@H]2[C@@H]3CCC4=CC(=O)CC[C@]4(C)[C@H]3C(=O)C[C@@]21C [21-deoxycortisone]
percent cross reactivity [1]: 36.4%
percent cross reactivity [2, 4]: 2.5%
percent cross reactivity [2, 5]: 2.7%
percent cross reactivity [2, 6]: 3.1%
percent cross reactivity [3]: 1.4%

C[C@]12CC[C@@H](O)C[C@H]1CC[C@@H]1[C@@H]2C(=O)C[C@@]2(C)[C@H]1CC[C@]2(O)[C@@H](O)CO [α-cortolone]
percent cross reactivity [1]: 0.0%
percent cross reactivity [2, 4]: 0.0%
percent cross reactivity [2, 5]: 0.0%
percent cross reactivity [2, 6]: 0.0%
percent cross reactivity [3]: 0.0%

C[C@]12CCC(=O)C=C1CC[C@@H]1[C@@H]2[C@@H](O)C[C@@]2(C)[C@H]1CC[C@]2(O)[C@@H](O)CO [20α-dihydrocortisol]
percent cross reactivity [1]: 0.4%
percent cross reactivity [2, 4]: 0.7%
percent cross reactivity [2, 5]: 0.6%
percent cross reactivity [2, 6]: 0.6%
percent cross reactivity [3]: 0.9%

C[C@]12CCC(=O)C=C1CC[C@@H]1[C@@H]2[C@@H](O)C[C@@]2(C)[C@H]1CC[C@]2(O)[C@H](O)CO [20β-dihydrocortisol]
percent cross reactivity [1]: 0.6%
percent cross reactivity [2, 4]: 1.6%
percent cross reactivity [2, 5]: 1.5%
percent cross reactivity [2, 6]: 1.3%
percent cross reactivity [3]: 2.1%

CC(=O)[C@H]1CC[C@H]2[C@@H]3CCC4=CC(=O)CC[C@]4(C)[C@H]3[C@@H](O)C[C@]12C [11β-hydroxyprogesterone]
percent cross reactivity [1]: 0.6%
percent cross reactivity [2, 4]: 0.7%
percent cross reactivity [2, 5]: 0.7%
percent cross reactivity [2, 6]: 0.6%
percent cross reactivity [3]: 0.7%

C[C@]12CCC(=O)C=C1CC[C@@H]1[C@@H]2CC[C@@]2(C)[C@H]1CC[C@]2(O)C(=O)CO [11-deoxycortisol]
percent cross reactivity [1]: 39.8%
percent cross reactivity [2, 4]: 3.0%
percent cross reactivity [2, 5]: 3.2%
percent cross reactivity [2, 6]: 3.7%
percent cross reactivity [3]: 1.7%

C[C@]12CCC(=O)C=C1CC[C@@H]1[C@@H]2[C@@H](O)C[C@@]2(C)[C@H]1CC[C@]2(O)C(=O)COS(=O)(=O)O [sulphate 21-cortisol]
percent cross reactivity [1]: 22.5%
percent cross reactivity [2, 4]: 0.6%
percent cross reactivity [2, 5]: 0.7%
percent cross reactivity [2, 6]: 0.9%
percent cross reactivity [3]: 0.2%

C[C@]12CC[C@@H](O)C[C@H]1CC[C@@H]1[C@@H]2C(=O)C[C@@]2(C)[C@H]1CC[C@]2(O)C(=O)CO [tetrahydrocortisone]
percent cross reactivity [1]: 0.5%
percent cross reactivity [2, 4]: 0.2%
percent cross reactivity [2, 5]: 0.2%
percent cross reactivity [2, 6]: 0.3%
percent cross reactivity [3]: 0.1%

C[C@]12C=CC(=O)C=C1CC[C@@H]1[C@@H]2C(=O)C[C@@]2(C)[C@H]1CC[C@]2(O)C(=O)CO [prednisone]
percent cross reactivity [1]: 26.5%
percent cross reactivity [2, 4]: 1.1%
percent cross reactivity [2, 5]: 1.3%
percent cross reactivity [2, 6]: 1.5%
percent cross reactivity [3]: 0.6%

C[C@]12CC[C@@H](O)C[C@H]1CC[C@@H]1[C@@H]2[C@@H](O)C[C@@]2(C)[C@H]1CC[C@]2(O)[C@H](O)CO [β-cortol]
percent cross reactivity [1]: 0.0%
percent cross reactivity [2, 4]: 0.0%
percent cross reactivity [2, 5]: 0.0%
percent cross reactivity [2, 6]: 0.0%
percent cross reactivity [3]: 0.0%

C[C@]12CC[C@@H](O)C[C@H]1CC[C@@H]1[C@@H]2[C@@H](O)C[C@@]2(C)[C@H]1CC[C@]2(O)C(=O)CO [tetrahydrocortisol]
percent cross reactivity [1]: 0.0%
percent cross reactivity [2, 4]: 0.1%
percent cross reactivity [2, 5]: 0.1%
percent cross reactivity [2, 6]: 0.0%
percent cross reactivity [3]: 0.1%

CC(=O)[C@H]1CC[C@H]2[C@@H]3CCC4=CC(=O)CC[C@]4(C)[C@H]3CC[C@]12C [progesterone]
percent cross reactivity [1]: 0.6%
percent cross reactivity [2, 4]: 0.6%
percent cross reactivity [2, 5]: 0.6%
percent cross reactivity [2, 6]: 0.6%
percent cross reactivity [3]: 0.6%

C[C@]12C[C@H](O)[C@H]3[C@@H](CCC4=CC(=O)CC[C@@]43C)[C@@H]1CC[C@@H]2C(=O)CO [corticosterone]
percent cross reactivity [1]: 0.6%
percent cross reactivity [2, 4]: 1.8%
percent cross reactivity [2, 5]: 1.5%
percent cross reactivity [2, 6]: 1.4%
percent cross reactivity [3]: 3.0%

C[C@]12CC[C@@H](O)C[C@H]1CC[C@@H]1[C@@H]2C(=O)C[C@]2(C)C(=O)CC[C@@H]12 [11-ketoetiocholanolone]
percent cross reactivity [1]: 0.0%
percent cross reactivity [2, 4]: 0.0%
percent cross reactivity [2, 5]: 0.0%
percent cross reactivity [2, 6]: 0.0%
percent cross reactivity [3]: 0.0%

CC(=O)[C@@]1(O)CC[C@H]2[C@@H]3CC=C4C[C@@H](O)CC[C@]4(C)[C@H]3CC[C@@]21C [17β-hydroxypregnenolone]
percent cross reactivity [1]: 0.1%
percent cross reactivity [2, 4]: 0.1%
percent cross reactivity [2, 5]: 0.1%
percent cross reactivity [2, 6]: 0.1%
percent cross reactivity [3]: 0.1%

C[C@]12CC[C@@H](O)C[C@H]1CC[C@@H]1[C@@H]2C(=O)C[C@@]2(C)[C@H]1CC[C@]2(O)[C@H](O)CO [β-cortolone]
percent cross reactivity [1]: 0.0%
percent cross reactivity [2, 4]: 0.0%
percent cross reactivity [2, 5]: 0.0%
percent cross reactivity [2, 6]: 0.0%
percent cross reactivity [3]: 0.0%

C[C@]12CCC(=O)C=C1CC[C@@H]1[C@@H]2[C@@H](O)C[C@]2(C=O)[C@@H](C(=O)CO)CC[C@@H]12 [Aldosterone]
percent cross reactivity [1]: 0.3%
percent cross reactivity [2, 4]: 0.3%
percent cross reactivity [2, 5]: 0.3%
percent cross reactivity [2, 6]: 0.3%
percent cross reactivity [3]: 0.3%

CC(=O)[C@@]1(O)CC[C@H]2[C@@H]3CCC4=CC(=O)CC[C@]4(C)[C@H]3[C@@H](O)C[C@@]21C [21-deoxycortisol]
percent cross reactivity [1]: 8.3%
percent cross reactivity [2, 4]: 7.2%
percent cross reactivity [2, 5]: 6.9%
percent cross reactivity [2, 6]: 6.9%
percent cross reactivity [3]: 6.4%

CC(=O)OCC(=O)[C@@]1(O)CC[C@H]2[C@@H]3CCC4=CC(=O)CC[C@]4(C)[C@@]3(F)[C@@H](O)C[C@@]21C [fluorocortisone acetate]
percent cross reactivity [1]: 35.3%
percent cross reactivity [2, 4]: 27.8%
percent cross reactivity [2, 5]: 20.9%
percent cross reactivity [2, 6]: 17.0%
percent cross reactivity [3]: 69.3%
